Test results as given in publication PMC6290777, “Inhalation of the prodrug PI3K inhibitor CL27c improves lung function in asthma and fibrosis” (Nature Communications, 2018).

Key:
[1] = Microsomial stability, human; assay type: in vitro ADME; conditions: human liver microsomes, NADPH
Experimental: To define whether this prodrug was suitable for inhaled administration, CL27c was studied to evaluate selected ADME (absorption, distribution, metabolism, and excretion) and pharmacokinetic properties. First, stability of CL27c and CL27e was analyzed in mouse plasma (Supplementary Table 1) and in mouse, rat, and human liver microsomes in the presence of nicotinamide adenine dinucleotide phosphate (NADPH; Supplementary Table 2). Next, clearance of CL27c was analyzed in C57BL/6J mice after either intra-venous or oral administration. […] Clearance of CL27c and CL27e after oral administration could not be determined due to their low bioavailability (Supplementary Table 3). Next, pharmacokinetics after inhalation was studied in C57BL/6J mice after delivering an aerosolized micro-suspension of CL27c. As shown in Table 1 and Supplementary Fig. 1b, CL27c dose-dependently reached the lungs and its metabolite CL27e was detectable after inhalation of the highest dose. […] Therefore, the inhaled prodrug promotes local effects but prevents systemic absorption of pharmacologically relevant amounts of the active compound. […]
All tests for the microsomial stability of CL27c were conducted by the Istituto di Ricerche Biomediche (RBM) SpA – Merck Serono, Ivrea, Italy. […]
Then, cells […]
pretreated with different doses of CL27c were incubated at 37°C and 5% CO 2 for 10 minutes. […]

[2] = test system: bleomycin-induced lung fibrosis; assay: Bleomycin-induced lung injury and fibrosis in mice; assay type: in vivo, C57BL/6J mice
Experimental: Eight-to-ten-week-old C57BL/6J males were used in bleomycin-induced lung injury and fibrosis model[10],[51]. Briefly, a single 40 µl injection containing 3.75 or 2 mg/kg of bleomycin sulfate (Sigma Aldrich-MERCK #B1141000) diluted in PBS or PBS only (vehicle) was instilled intratracheally. […]
Levels of hydroxyproline in lung tissues were measured using the Hydroxyproline Assay kit (Sigma-Audrich, St. Louis, MO, USA) according to the manufacturer’s instructions. Briefly, 10 mg of pulverized frozen lungs homogenized in 100 µL of concentrated hydrochloric acid (HCl, 12 M), and hydrolyzed at 120 °C for 3 h. Then, 5 µL of each sample in triplicate were used to the assay. […] The absorbance was obtained at 560 nm. The final results are expressed as concentration of hydroxyproline in µg/mL.
The left lung was removed and fixed in 4% neutral phosphate-buffered formalin (pH 7.4)[10]. The tissues were dehydrated gradually in ethanol, embedded in paraffin, cut into 4 µm sections, stained with H&E, Gomori’s trichrome and periodic acid schiff (PAS), and examined under light microscopy by a pathologist in a double blinded manner. Images of lung sections were captured with a digital camera (Optronics DEI-470) connected to a microscope (Olympus IX70) with a magnification of ×40 or ×100. Inflammation was scored according to modification of existing protocols[53] and to the histopathology criteria reported in Supplementary Table 4. […]
For quantitative measurements, total RNA was extracted from lung tissues using the High Pure RNA isolation kit (Invitrogen, Life Technologies, Paisley, UK) and reverse-transcribed with the Superscript first-strand synthesis system kit (Invitrogen, Life Technologies, Paisley, UK). Specific mRNA sequences were quantified by real-time PCR with primer/probe combinations based on the Roche Universal ProbeLibrary Set, Mouse (Tgfb1 probe: #72, Ctgf probe: #71, Col1a1 probe: #15 and Mmp2 probe #49). Primer sequences are listed in Supplementary Table 5.

[3] = late treatment, day 17 to day 27
[4] = moderate model, bleomycin 2 mg/kg, aerosolized CL27c 2 mg/ml
[5] = moderate model, therapeutic aerosolized CL27c
[6] = severe model, bleomycin 3.75 mg/kg

For `COC(=O)c1cccc(Cn2cc(-c3cccc4c(=O)cc(N5CCOCC5)[nH]c34)nn2)c1` [CL27c], the “Clint (intrinsic clearance)” value [1] was 0.1 ± 0.03 ml/min/mg prot, the t1/2 [1] was 10.2 ± 2.2 min and the “Akt phosphorylation in lung protein extracts and sections” value ([2]; bleomycin model) was “blunted the increase of Akt phosphorylation”. The lung function [2, 3] was “improved lung function”, the mortality [2, 3] was “significantly blunts mortality” and the fibrotic collagen deposition ([2]; late treatment, day 17 to day 27 after bleomycin 2 mg/kg) was “still effective in reducing fibrotic collagen deposition”. The “lung elasticity (pulmonary compliance) restored, relative to controls” value ([2]; moderate model) was 75 % of controls, the lung resistance ([2]; moderate model) was “reduce the gain in lung resistance almost to the level of healthy mice” and the survival ([2]; moderate model, 22 days after instillation, bleomycin alone 50% mortality) was 100%. The “fibrotic remodeling (Ashcroft score, collagen content)” value ([2]; moderate model, bleomycin 2 mg/kg) was “significantly reduce fibrotic remodeling”, the “abundance of active TGF-β1” value [2, 4] was “significantly decreased the abundance of active TGF-β1” and the “mRNA levels of Tgfb1, Ctgf, Col1a1, Mmp2” value [2, 4] was “attenuated mRNA levels of Tgfb1”. For the same compound, the “neutrophil-derived MPO levels in the lungs” value [2, 4] was “markedly reduced”, the “airway inflammation (BALF cells)” value ([2]; moderate model, bleomycin 2 mg/kg, aerosolized CL27c 2 mg/ml day 10 to 21) was “markedly reduced airway inflammation” and the histopathological inflammation score ([2]; moderate model, day 22) was “significantly attenuated in airways, vasculature, and parenchyma”. The “TLC, inspiratory capacity, forced vital capacity, and FEV” value [2, 5] was “significant recovery back to normal levels”, the “pressure–volume curve” value [2, 5] was “significantly improved the pressure–volume curve” and the “hydroxyproline deposition in lungs” value [2, 6] was “significantly decreased hydroxyproline deposition in lungs”. For the same compound, the “infiltration of macrophages and neutrophils” value [2, 6] was “reduced infiltration of either macrophages or neutrophils” and the “mortality within 21 days” value ([2]; severe model, bleomycin 3.75 mg/kg, CL27c could not protect) was 100%.
